We go through one compound from US7709636B2, “Pyrazole sulfonylurea compound and herbicide” (Nissan Chemical Industries, Ltd., priority 2004, dated 2010).

In data set [1] the test system is transplanted rice (Oryza sativa). The data set is described as follows: Crop injury test on rice in water leakage condition. The data set is classed as in vivo. Particulars: 0.15 g/a; water leakage 2 cm/day x 3 days; treated on third day after transplantation; 3 weeks after treatment. As for the experimental part: Crop Injury Test on Rice in Water Leakage Condition A mixed soil of alluvial soil and diluvial soil was placed in a plastic pot perforated at the bottom of 1/10000 are, water was poured therein and mixed, and then rice seedlings at 2.5th leaf stage were transplanted. Water leakage treatment was carried out by placing the pot in a plastic vat, and controlling the amount of water in the vat kept at a condition of 2 cm/day×3 days. The pot was put in a green house at 25 to 30° C., on third day after transplantation, the wettable powder of the present invention prepared according to Formulation Example 1 was diluted with water so as to give a predetermined formulation amount, and the surface of the water was treated with the diluted wettable powder. The crop injury on rice was investigated 3 weeks after treatment with the herbicide according to the criteria indicated in Test Example 1.

The subject of another data set is Black-grass. The data set is described as follows: Herbicidal effect test by foliage treatment. Format: in vivo. Particulars: 1.6 g/a; foliage treatment after growth of 14 days; 3 weeks after treatment. The essentials:
(§1)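 Post-emergence foliar spray: plants raised 14 d in greenhouse (25–30° C) from seed in sterilized diluvial soil, sprayed with diluted wettable powder formulation, injury rated visually at 3 wk.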

For a further data set, the system named is Beta vulgaris (beet). Briefly: Herbicidal effect test by foliage treatment. Format: in vivo. Particulars: 1.6 g/a; foliage treatment after growth of 14 days; 3 weeks after treatment. The essentials:
as §1

In the next data set the test system is Amaranthus retroflexus. Briefly: Herbicidal effect test by foliage treatment. The data set is classed as in vivo. The conditions noted are these: 1.6 g/a; foliage treatment after growth of 14 days; 3 weeks after treatment. The method in brief:
as §1

Data set [2] relates to Echinochloa crus-galli. The data set is described as follows: Herbicidal effect test in submerged condition by treatment before weed-generation (1). The conditions noted are these: 0.64 g/a, water surface treated on day of sowing, 3 weeks after treatment. The data set is classed as in vivo. The method in brief: (§2)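 Pre-emergence water-surface application of diluted wettable-powder formulation at a predetermined rate, same day as sowing, in flooded alluvial soil (4 cm water) with transplanted 2.5-leaf rice. Grown 3 weeks at 25 to 30° C in greenhouse; rated 0–5 by herbicidal rate.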

Data set [3] relates to Scirpus juncoides. The description is as above. The data set is classed as in vivo. The conditions noted are these: 0.64 g/a, water surface treated on day of sowing, 3 weeks after treatment. The method in brief: as §2
For data set [4], the system named is Monochoria vaginalis. The data set is described as above. The data set is classed as in vivo. Particulars: 0.64 g/a, water surface treated on day of sowing, 3 weeks after treatment. The method in brief:
as §2

In data set [5] the test system is Echinochloa crus-galli. Briefly: Herbicidal effect test in submerged condition by treatment during weed-growth stage (1). Format: in vivo. Particulars: 0.64 g/a, treated at 1st to 2nd leaf stage, 3 weeks after treatment. The essentials: (§3)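 Paddy-soil pots flooded to 4 cm water depth were sown and grown in a greenhouse at 25 to 30° C until weeds reached 1st to 2nd leaf stage. A wettable powder diluted in water to a predetermined formulation amount was applied to the water surface. Herbicidal effect was scored 3 weeks after treatment against set criteria.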

Data set [6] has as its system Scirpus juncoides. The data set is described as above. Format: in vivo. The conditions noted are these: 0.64 g/a, treated at 1st to 2nd leaf stage, 3 weeks after treatment. The method in brief: as §3
Data set [7] deals with Monochoria vaginalis. The data set is described as above. Particulars: 0.64 g/a, treated at 1st to 2nd leaf stage, 3 weeks after treatment. Format: in vivo. The method in brief:
as §3

Another data set deals with direct sown rice. Briefly: Herbicidal effect test by foliage treatment. Format: in vivo, Oryza sativa. Particulars: 1.6 g/a; foliage treatment after growth of 14 days; 3 weeks after treatment. The essentials:
as §1

As to `COc1cc(OC)nc(NC(=O)NS(=O)(=O)c2c(C3=NOCC(C)O3)c(Cl)nn2C)n1` (centres unmarked) [Compound 1, N-((4,6-dimethoxypyrimidin-2-yl)aminocarbonyl)-3-chloro-1-methyl-4-(5-methyl-5H,6H-1,4,2-dioxadin-3-yl)pyrazole-5-sulfonamide], in data set [1], the “crop injury on rice, a: transplanted rice (Oryza sativa)” value is given as 0 (Herbicidal rate 5% or less (little effect)). For the same compound, the “herbicidal effect, G: Black-grass” value with Black-grass is 4 (Herbicidal rate 70% or more and less than 90%). The “herbicidal effect, f: Beta vulgaris (beet)” value with Beta vulgaris (beet) is reported as 5 (Herbicidal rate 90% or more (almost complete death)). In addition, the “herbicidal effect, J: Amaranthus retroflexus” value in the data set with Amaranthus retroflexus is 5 (Herbicidal rate 90% or more (almost complete death)). Further, the “herbicidal effect, A: Echinochloa crus-galli” value with Echinochloa crus-galli [2] and in the data set with Echinochloa crus-galli [5] was 5 (Herbicidal rate 90% or more (almost complete death)) throughout. The “herbicidal effect, B: Scirpus juncoides” value in the data set with Scirpus juncoides [3] and with Scirpus juncoides [6] was 5 (Herbicidal rate 90% or more (almost complete death)) throughout. Further, the “herbicidal effect, C: Monochoria vaginalis” value in the data set on Monochoria vaginalis [4] and with Monochoria vaginalis [7] was 5 (Herbicidal rate 90% or more (almost complete death)) each time. Besides, in the data set with direct sown rice, the “herbicidal effect, d: direct sown rice” value was 0 (Herbicidal rate 5% or less (little effect)).
